# Data published in paper PMC5994430, “Mitochondrial Delivery of Phenol Substructure Triggers Mitochondrial Depolarization and Apoptosis of Cancer Cells” (Frontiers in Pharmacology, 2018).
# Legend:
# [1] = tested on: human cancer cell lines and normal cells; test: Cell viability, panel of cancer cell lines and normal cells; type: cell-based; details: for IC50: Homo sapiens, all cancer cell lines examined; for concentrations with cytotoxic activity: cancer cell lines in vitro
# Text: (§1) Human colon cancer HT29 cells, colon-derived normal fibroblast CCD-18Co cells, lung cancer A549 cells, normal human bronchial epithelial (immortalized with adenovirus 12-SV40 virus hybrid Ad12SV40) BEAS-2B cells, breast cancer MDA-MB-231 cells, normal breast epithelial MCF10A cells, human osteosarcoma U-2OS cells were purchased from ATCC (Manassas, VA, United States). Primary osteoblasts were generated as reported previously ([Buondonno et al., 2016]). HMM and HMC were primary cells stabilized in culture as described ([Aldieri et al., 2004]). The use of primary cells was approved by Ethical Committee of the San Luigi Gonzaga Hospital, Orbassano, (protocol #126/2016). All subjects gave written informed consent in accordance with the Declaration of Helsinki. Cells were maintained in medium supplemented with 10% v/v fetal bovine serum, 1% v/v penicillin-streptomycin, 1% v/v L-glutamine. Morphological analysis was performed with a bright field microscope (Leica Microsystems, Wetzlar, Germany). At least 5 fields/experimental condition were examined.
# (§2) The extracellular release of LDH, considered an index of cell damage and necrosis, was measured spectrophotometrically, as reported ([Riganti et al., 2013b]). The extracellular medium was centrifuged at 12,000 × g for 15 min to pellet cellular debris, the cells were washed with fresh medium, detached with 0.01% trypsin/EDTA, re-suspended in 0.2 ml of 82.3 mM triethanolamine phosphate-HCl (pH 7.6), and sonicated on ice with two 10-sec bursts. LDH activity was measured in the extracellular medium and in the cell lysate: 50 μl of extracellular medium or 5 μl of cell lysate were incubated at 37°C with 5 mM NADH. The reaction was started by adding 20 mM pyruvic acid and was monitored for 6 min, measuring absorbance at 340 nm using a Synergy HT Multi-Detection Microplate Reader (Bio-Tek Instruments, Winoosky, MT, United States). The reaction kinetics were linear throughout the time of measurement. Both intracellular and extracellular enzyme activities were expressed as μmol NADH oxidized/min/dish. The results were expressed as percentage of extracellular LDH versus total (intracellular plus extracellular) LDH. Cell viability was measured by the neutral red staining method, as previously reported ([Riganti et al., 2015b]). The absorbance of untreated cells was considered as 100% viability; the results were expressed as percentage of viable cells versus untreated cells. IC50 was calculated with the CompuSyn software^1.
# FIGURE 4 Effects of phenolic TPP-derivatives on the viability of cancer cell lines and normal cells. Cells were incubated 72 h in fresh medium (0) or with increasing concentrations (0.1, 1, and 10 μM) of 1 and 2. Cell viability was measured spectrophotometrically in quadruplicates. […]
# BEAS-2B cells [2] = test: Mitochondrial depolarization (JC-1); type: cell-based, Human; details: 0.1 μM, 4 h
# Procedure: (§3) Mitochondrial depolarization was measured by staining cells with the fluorescent probe JC-1 (Biotium Inc., Hayward, CA, United States), as described ([Riganti et al., 2015a]). The red fluorescence, index of polarized mitochondria, was detected at 550 nm (λ excitation) and 600 nm (λ emission); the green fluorescence, index of depolarized and damaged mitochondria, was detected at 485 nm (λ excitation) and 535 nm (λ emission). The fluorescence units were used to calculate the percentage of green-fluorescent versus red-fluorescent mitochondria.
# (§4) [t] Continuedof three experiments with similar results. (D) Confocal analysis of mitochondrial staining with MitoTracker® Green FM. Magnification: 60 × objective (0.52 numerical aperture); 10 × ocular lens. Bar: 10 μM. The micrographs are representative of three experiments with similar results. (E,F) The electron transport was measured spectrophotometrically in duplicates. ATP levels in mitochondrial extracts was measured by a chemiluminescence-based assay, in duplicates. Data are means ± SD (n = 3). For both panels: ^∗p < 0.001 vs. A549 ctrl cells; °p < 0.001 for BEAS-2B cells vs. the corresponding condition in A549 cells. (G,H) ROS amount in mitochondrial extracts and mitochondrial damage were measured fluorimetrically, in duplicates. Data are means ± SD (n = 3). For both panels: ^∗p < 0.001 vs. A549 ctrl cells; °p < 0.001 for BEAS-2B cells vs. the corresponding condition in A549 cells. There were no statistically significant differences between untreated (ctrl) and compound 1/compound 2-treated BEAS-2B cells for all the parameters analyzed in this figure.
# A549 cells [3] = test: Mitochondrial depolarization (JC-1); type: cell-based, Human; details: 0.1 μM, 4 h
# Procedure: as §3, §4
# MDA-MB-231 cells = test: Cell viability (neutral red), IC50; type: cell-based; details: Homo sapiens, MDA-MB-231 breast cancer cells, CompuSyn
# Text: as §1, §2
# BEAS-2B cells [4] = test: Bright field morphological analysis; type: cell-based, Human; details: 0.1 μM, 24 h
# Text: as §1
# (§5) FIGURE 7 Effects of phenol TPP-derivatives on mitochondria-dependent apoptosis. A549 and BEAS-2B cells were incubated 24 h in fresh medium (ctrl) or in medium containing 0.1 μM of 1 or 2. (A,B) The activity of caspase 9 and 3 was measured fluorimetrically, in duplicates. Data are means ± SD (n = 3). For both panels: ^∗p < 0.001 vs. A549 ctrl cells; °p < 0.001 for BEAS-2B cells vs. the corresponding condition in A549 cells. (C,D) Cell cycle distribution, measured in duplicates. Data are means ± SD (n = 3). For both panels: ^∗p < 0.001 vs. A549 ctrl cells: °p < 0.001 for BEAS-2B cells vs. the corresponding condition in A549 cells. (E) Bright field microscope analysis of cells. Magnification: 60 × objective (0.52 numerical aperture); 10 × ocular lens. Bar: 20 μM. The micrographs are representative of three experiments with similar results.
# A549 cells [5] = test: Bright field morphological analysis; type: cell-based, Human; details: 0.1 μM, 24 h, compared with untreated cells
# Text: as §1, §5
# mitochondrial ROS = test: Mitochondrial ROS (MitoSOX Red) in A549 cells; type: cell-based, Human; details: 0.1 μM, 4 h
# Procedure: The amount of ROS in mitochondrial extracts was measured fluorimetrically by incubating cell suspension at 37°C for 10 min with 10 μM of MitoSOX Red probe (Invitrogen Life Technologies), as per manufacturer’s instructions. Results were expressed as nmoles/mg mitochondrial proteins, using a calibration curve previously set with serial dilution of H2O2.
# as §4, with “= 3). […] There were” for “= 3). For both panels: ^∗p < 0.001 vs. A549 ctrl cells; °p < 0.001 for BEAS-2B cells vs. the corresponding condition in A549 cells. There were”
# [6] = tested on: mitofusin 1 (MFN1) and mitofusin 2 (MFN2); test: qRT-PCR of mitofusin mRNA in A549 cells; type: cell-based, Human; details: 0.1 μM, 4 h
# Procedure: Supplementary Figure 4 Effects of TPP-derivatives on mitofusin 1 and mitofusin 2 expression.
# A549 and BEAS-2B cells were incubated 4 h in fresh medium (ctrl) or with 0.1 µM of 1 and 2.
# Expression of mitofusin 1 (MFN1) and mitofusin 2 (MFN2) mRNA was evaluated by qRT-PCR in
# triplicates. Data are means ± SD (n=3).
# (1 picture or pasted object on this page, not shown here)
smiles,measurement,setting,value
CC(=O)Oc1ccc(C[P+](c2ccccc2)(c2ccccc2)c2ccccc2)cc1.[Br-] [Compound 1],IC50,[1],< 10 µM
same,concentrations with cytotoxic activity,[1],100 to 1000 nM
same,mitochondrial depolarization,BEAS-2B cells [2],negligible modifications
same,percentage of depolarized mitochondria,A549 cells [3],acutely increased
same,IC50,MDA-MB-231 cells,8.32 ± 1.25 µM
same,cell morphology,BEAS-2B cells [4],decreased cell density without appreciable morphological signs of apoptosis
same,cell morphology,A549 cells [5],reduced cell number and a clear round-shaped morphology
same,mitochondrial ROS,mitochondrial ROS,acutely increased
same,expression of mitofusin 1 (MFN1) and mitofusin 2 (MFN2),[6],no changes
O=C(Oc1ccc(C[P+](c2ccccc2)(c2ccccc2)c2ccccc2)cc1C(F)(F)F)c1ccccc1.[Br-] [Compound 2],IC50,[1],< 10 µM
same,concentrations with cytotoxic activity,[1],100 to 1000 nM
same,mitochondrial depolarization,BEAS-2B cells [2],negligible modifications
same,percentage of depolarized mitochondria,A549 cells [3],acutely increased
same,IC50,MDA-MB-231 cells,0.34 ± 0.11 µM
same,cell morphology,BEAS-2B cells [4],decreased cell density without appreciable morphological signs of apoptosis
same,cell morphology,A549 cells [5],reduced cell number and a clear round-shaped morphology
same,mitochondrial ROS,mitochondrial ROS,acutely increased
same,expression of mitofusin 1 (MFN1) and mitofusin 2 (MFN2),[6],no changes
